Data set [1] concerns the target T1, truncated-RRM2 protein (deletion of GLU147 to ILE166) (Homo sapiens, UniProt P31350, DEL147-166).
T1 construct: expressed in transfected cells; host or cells: HCT116
As to the kind of experiment: Thermal shift assay, truncated RRM2. The class given is cell-based. The settings on record: HCT116 cells. The source says:
To verify the DHS binding site on RRM2, a RRM2 construct with a deletion of GLU147 to ILE166 was generated. […] Since Hu is also known to interact with RRM2 protein, the effect of DHS on Hu binding to RRM2 was investigated using a cellular thermal shift assay with KB-Hu (an Hu resistant oral cancer cell line).

The conditions of data set [2]: mouse, in vivo.
Protocol: (§1) Xenograft mouse models. […] In xenograft studies, HCT116 (3×10^6 cells) and IGROV3/CP2 (5×10^6 cells) suspended in 100 μl of phosphate buffered saline (PBS, pH 7.4) were injected subcutaneously into the lower flank of the mice. Testing compounds were dissolved in DMSO/Tween 80/saline (10:10:80; v/v/v) buffer and were used to treat animals through intraperitoneal (i.p.) injection. […] The body weight of animals was measured throughout the study. Tumor diameters were measured with digital calipers, and the tumor volume in mm^3 was calculated by the formula: Volume=(width)^2×length/2.
(§2) HCT116 cells (5×10^6) were injected subcutaneously in nude mice and grown to approximately 100 mm^3 in volume. […] To study the preclinical toxicity of DHS, samples of hearts, livers, spleens, lung, and kidneys were collected on Day 38 and sections were stained for histological examination.
Data set [3] relates to HCT116 cells. As to the kind of experiment: Comet assay. The class given is cell-based, human. Particulars: 2.5 μM for 24 hours. Here is the method:
Comet assay. HCT116 cells were treated with DHS for 0.5 or 24 hours. Afterward, the cells were irradiated with X-rays at a dose of 20 Gy. An aliquot of 80 μL cell suspension were mixed with 400 μL 1.2% low melting point agarose and plated on Fisherfinest microscope slide (Thermo Scientific, Pittsburgh, Pa., US), which had already been layered with 120 μL 1% agarose gel. Cells were then lysed and DNA was electrophoretically separated. The gels were neutralized before staining with 60 μL of 5 μM SYBR green. The shape of the stained DNA mass in at least 50 cells in each sample was analyzed with OpenComet software (MA, US).
To investigate whether inhibition of DNA replication by DHS can trigger DNA damage, the DNA damage markers phosphor-Chk1 (pChk1, Serine 345) and phosphor-Chk2 (pChk2, Threonine 68) were analyzed in DHS-treated HCT116 cells. […] A comet assay was next used to test if DNA double strand breaks are induced by DHS.

The next data set concerns SKOV3. Briefly: DHS and cisplatin, SKOV3 cells. It counts as cell-based, human. The text has this:
The effect of DHS on a human SKOV3 ovarian cell line and its cisplatin-resistant subline, SKOV3/CP7, was investigated.

Data set [4] relates to HCT116 cells. As to the kind of experiment: Clonogenic colony formation assay. It counts as cell-based, human. Particulars: 0 to 50 μM. Here is the method: To confirm the cell killing effect of DHS, a clonogenic colony formation assay was conducted. […] The effect of DHS on growth of cancer cell lines was analyzed using The NCI Development Therapeutics Program (DTP).
For data set [5], the system named is HCT116 cells. As to the kind of experiment: dNTP amount in treated cells. It counts as cell-based, human. The text has this: The effect of DHS on dNTP synthesis was investigated by measuring the amount of dNTPs in DHS-treated HCT116 cells.
For a further data set, the system named is HCT116 xenograft tumor. Briefly: HCT116 xenograft tumor model. It counts as in vivo, nude mice. Particulars: Day 38; DHS 50 mg/kg i.p. 14 consecutive days; cisplatin 8 mg/kg i.p.
The subject of a further data set is And-1 protein. As to the kind of experiment: And-1 protein level by Western blot. The class given is cell-based. Particulars: U2OS and HCT116 cells. As to the method:
Western blot analysis. Compound-treated cells were harvested and lysed. Protein extracts were subjected to electrophoresis in a SDS-polyacrylamide gel. The resolved proteins were transferred onto polyvinylidene difluoride membranes (Amersham Biosciences, Piscataway, N.J., US). After the blocking step, membranes were incubated with primary IgG antibodies, washed, and then incubated with horseradish peroxidase-conjugated anti-rabbit IgG or anti-mouse IgG secondary antibodies. Western blot signals were visualized by chemiluminescence using SuperSignal West Pico chemiluminescence reagent (Pierce, Rockford, Ill., US).
The effect of DHS treatment on And-1, RRM1, and RRM2 expression was investigated.

T1 sequence (P31350 with tags, fused parts or gaps DEL147-166): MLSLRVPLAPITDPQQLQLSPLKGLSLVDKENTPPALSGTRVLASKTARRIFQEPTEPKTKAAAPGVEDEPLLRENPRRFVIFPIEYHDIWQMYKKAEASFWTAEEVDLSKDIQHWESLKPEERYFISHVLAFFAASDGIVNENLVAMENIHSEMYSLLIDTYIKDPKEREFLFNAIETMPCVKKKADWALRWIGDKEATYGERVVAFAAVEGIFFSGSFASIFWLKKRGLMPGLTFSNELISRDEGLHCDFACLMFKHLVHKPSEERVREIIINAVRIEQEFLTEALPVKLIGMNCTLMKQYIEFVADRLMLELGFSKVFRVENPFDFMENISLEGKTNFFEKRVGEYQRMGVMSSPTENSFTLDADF
Protocol for HCT116 xenograft tumor: as §1, §2

`Oc1ccc(/C=C/c2ccc(O)cc2)cc1` [DHS, 4,4′-trans-dihydroxystilbene]: the “Thermal stability of truncated RRM2” value in data set [1] is “not able to maintain thermal stability of the truncated-RRM2 protein”. For the same compound, in data set [2], the “Histology, hearts, livers, lung, and kidneys” value is reported as “no obvious damage”; the “Histology, spleens” value is “Minor damage”. Besides, the “DNA double strand breaks (lengths of tail moments)” value in the data set on HCT116 cells [3] is reported as “caused significant DNA double strand breaks”. In addition, the “Sensitivity to DHS alone” value with SKOV3 was “sensitive to DHS treatment alone”. Further, the Colony formation entry in the data set on HCT116 cells [4] was “stronger suppression effect on HCT116 cell colony formation than resveratrol”. Also, the dNTP synthesis result with HCT116 cells [5] is “inhibited synthesis of dATP, dCTP, dGTP, and dTTP”. For the same compound, the “Reduction in tumor volume as compared with the vehicle control group” value in the data set with HCT116 xenograft tumor is about 50%. Also, in the data set with And-1 protein, the And-1 protein level result was “caused down-regulation of And-1 protein”.

The values above are taken from patent US11160767B2, “4,4′-trans-dihydroxystilbene for use in treating cancer” (The George Washington University, a Congressionally …, priority 2017, dated 2021).
